Test results taken from PubChem BioAssay (NCI).
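In this assay, cells in 96-well plates receive the compound at five concentrations for 48 hours. Endpoints are linearly interpolated between the surrounding concentrations. At the TGI there is no net growth.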

Key:
Experiment in all cases: growth of human tumour cells (NCI), 48 h
CAKI-1 renal = tested on: CAKI-1 renal
NCI-H522 lung = tested on: NCI-H522 lung
SNB-75 CNS = tested on: SNB-75 CNS
HCT-116 colon = tested on: HCT-116 colon
HL-60(TB) leukemia = tested on: HL-60(TB) leukemia
UACC-257 melanoma = tested on: UACC-257 melanoma
MDA-MB-435 = tested on: MDA-MB-435
HOP-92 NSCLC = tested on: HOP-92 NSCLC
OVCAR-4 ovarian = tested on: OVCAR-4 ovarian
NCI-H460 lung = tested on: NCI-H460 lung
786-0 renal = tested on: 786-0 renal
ACHN renal = tested on: ACHN renal
SK-MEL-2 melanoma = tested on: SK-MEL-2 melanoma
CCRF-CEM leukemia = tested on: CCRF-CEM leukemia
SR leukemia = tested on: SR leukemia

Measured: TGI

CCCCCCCCCCCC(=O)OCC(O)CO (stereo not given)
42.3 µM: HL-60(TB) leukemia
not listed: SR leukemia
> 100 µM: all other assays above

NNC(=O)c1cc(Cl)ccc1NC(=O)C12CC3CC(CC(C3)C1)C2
94.2 µM: HL-60(TB) leukemia
85.5 µM: HCT-116 colon
77.8 µM: ACHN renal
96.2 µM: UACC-257 melanoma
88.3 µM: SR leukemia
79.9 µM: 786-0 renal
not listed: CCRF-CEM leukemia
> 100 µM: all other assays above

O=C(N/N=C\c1ccc([N+](=O)[O-])cc1)Nc1ccc2ccccc2c1
68.4 µM: NCI-H522 lung
68.1 µM: SNB-75 CNS
36.2 µM: NCI-H460 lung
46.2 µM: OVCAR-4 ovarian
54.4 µM: HOP-92 NSCLC
63.3 µM: HCT-116 colon
32.7 µM: 786-0 renal
not listed: HL-60(TB) leukemia
> 100 µM: all other assays above

ON[C@@H]1C=C[C@H](n2cnc3c(NC4CC4)ncnc32)C1
not listed: HL-60(TB) leukemia
> 100 µM: all other assays above

CC1=NN(c2ccccc2Cl)C2(C1)C(Cl)C(=O)N2c1nc2ccccc2s1 (stereo not given)
89.9 µM: SNB-75 CNS
35 µM: NCI-H522 lung
60.6 µM: HL-60(TB) leukemia
49.6 µM: SR leukemia
not listed: CCRF-CEM leukemia
> 100 µM: all other assays above

O=C1NCC2(CCN(CC3COc4ccccc4O3)CC2)N1c1ccccc1 (stereo not given)
not listed: HOP-92 NSCLC
> 100 µM: all other assays above

O=C(O)c1cc(-c2ccc3cc(O)c(O)cc3c2)ccc1O
not listed: HOP-92 NSCLC | OVCAR-4 ovarian
> 12.5 µM: all other assays above

CCOC1OC(CO[Si](C)(C)C(C)(C)C)C(O)CC1n1ccc(=O)[nH]c1=O (stereo not given)
30.7 µM: HCT-116 colon
45.6 µM: NCI-H522 lung
not listed: HL-60(TB) leukemia | CCRF-CEM leukemia
> 100 µM: all other assays above
